Test results: patent publication US20150024008A1, “Methods and Compositions Involving Induced Senescent Cells for Cancer Treatment” (THE UNIVERSITY OF CHICAGO, priority 2011, published 2015)

What was measured:
B16 tumors [1] = experiment: RT-qPCR and immunohistochemistry of treated B16 tumors; format: in vivo, mouse
Method: (§1) Mouse melanoma cell line B16SIY (5×10^5 cells) were implanted subcutaneously in the flank of 6 to 8-wk-old C57/B6 mice. Tumors were allowed to grow until they reached a volume of about 100 to 150 mm^3 (approximately 2 wk) before treatment with PARP inhibitor veliparib (vrib, (R)-2-(2-methylpyrrolidin-2-yl)-1H-benzo[d]imidazole-4-carboxamide, ABT-888) and/or IR (Dunn 2006). Mice received 0.5 mg of veliparib in water twice daily by oral gavage as indicated. CD8^+, CD4^+, NK cells were depleted by anti-CD8 or anti-CD4 or anti-NK1.1, respectively, 1 d before IR. Depletion was confirmed by checking peripheral blood samples by flow cytometry. Macrophages were depleted with liposomal clodronate starting 1 d before IR. Depletion was confirmed by checking splenocyte and tumor samples by flow cytometry (Zhang 2008). Samples were collected 2 to 7 days later, and analyzed by flow cytometry using a BD LSRII flow cytometer. Blood samples were gated in forward scatter and side scatter on smaller cells for CD8, CD4 analysis, larger cells for NK and macrophage, and the percentage of different cell types were determined (Lugade 2008, Zhang 2010).
(§2) Slides were deparaffinized in xylene and hydrated with alcohol before being placed in 0.3% H2O2/methanol blocking solution to quench endogenous peroxidase activity followed by subsequent antigen unmasking in EDTA buffer. […] Reactions were developed with 3,3′-diaminobenzidine chromogen or Vulcan Red, respectively, and counterstained with hematoxylin. Negative controls were obtained by using isotype-matched primary antibody IgG. The SA-βGal assay was performed using the Senescence Beta-galactosidase Staining Kit (Cell Signaling) (Dunn 2006). All images were captured using Zeiss Axiovert 200M and Zeiss Axiocam color digital camera controlled by OpenLab software with a 20× objective. All primers sequence and running protocols for RT-PCR can be found in reference Table 2 (Lugade 2008, Zhang 2008).

[2] = system: MCF7 Tet-On GFP-IBD human breast cancer cell line; experiment: GFP-53BP1 IRIF persistence, senescence and growth in MCF7 Tet-On GFP-IBD cells; format: cell-based
Method: To examine the effect of glucose metabolism on IRIF persistence in living cells, we exploited our previously described IRIF reporter consisting of GFP fused to the 53BP1 IRIF binding domain, expressed under tetracycline-inducible control. MCF7^Tet-On GFP-IBD cells were seeded at 3×10^5 per Fluorodish (World Precision Instruments, Inc.) in high-glucose (4.5 g/L) DMEM (Invitrogen) media supplemented with 10% Tet system-approved fetal bovine serum (Clontech) and 1 μg/mL doxycycline (Sigma). Next day media was exchanged for either high-glucose (4.5 g/L) or low-glucose (1 g/L) DMEM with 10% FBS and 1 μg/mL doxycycline. […] Cells were fixed at 3 h and 24 h for IRIF imaging and at day 5 for SA-βGal staining. Images were captured on Zeiss Axiovert 200M and a Hammatsu Orca ER FireWire digital monochrome (IRIF) or Zeiss Axiocam color digital camera (SA-βGal staining) controlled by OpenLab software.
To investigate what step of glycolysis is critical for improvement of DNA repair we used set of well established glycolysis inhibitors including glucose transporter Glut1 inhibitor, HXKi, GAPHi, PKi, LDHi. […] Given that elevated glycolysis predispose tumor cells for therapeutic resistance similar experiment has been performed on IR resistant PANC02 mouse pancreatic and U87 human glioma cell lines.

bone marrow DCs = experiment: BM-DC coculture with veliparib/IR treated B16 cells; format: cell-based, mouse
Source text: B16SIY cells were maintained in a full medium supplemented with 10% FCS. The cells were pretreated with 10 μm veliparib then exposed to 6 or 12 Gy x-ray or IR alone (Gammacell 1000; MDS Nordion, Kanata, Ontario, Canada), then cocultured with immature BM-DC in a transwell system. 3 days later BM-DC were collected and analyzed by FACS for cell surface maturation marker and intracellular cytokines. […]

[3] = system: B16SIY murine melanoma tumors; experiment: H/E and SA-βGal staining of treated B16 tumors; format: in vivo, mouse; details: veliparib+IR vs IR or veliparib alone; 7 days after IR
Method: as §1
Slides were deparaffinized in xylene and hydrated with alcohol before being placed in 0.3% H2O2/methanol blocking solution to quench endogenous peroxidase activity followed by subsequent antigen unmasking in EDTA buffer. […]

[4] = system: B16SIY murine melanoma tumors; experiment: B16SIY tumor growth after veliparib and IR; format: in vivo, mouse; details: veliparib 0.5 mg twice daily oral + 6 or 12 Gy IR vs IR alone; C57/B6 mice
Method: as §1

B16 melanoma cells = experiment: RT-qPCR of SASP cytokines in B16 cells treated in vitro; format: cell-based, mouse; details: veliparib+IR
Method: as §2
B16SIY cells were maintained in a full medium supplemented with 10% FCS. The cells were pretreated with 10 μm veliparib then exposed to 6 or 12 Gy x-ray or IR alone (Gammacell 1000; MDS Nordion, Kanata, Ontario, Canada), then cocultured with immature BM-DC in a transwell system. 3 days later BM-DC were collected and analyzed by FACS for cell surface maturation marker and intracellular cytokines. These BM-DC were used to stimulate sorted CD4+ cells (Lugade 2008, Zhang 2008).

B16 tumors [5] = experiment: Flow cytometry of tumor infiltrating lymphocytes from B16 tumors; format: in vivo, mouse; details: veliparib+IR
Method: as §1

[6] = system: murine pancreatic cancer cell line p1048; experiment: SA-βGal staining and cytokine expression in p1048 cells; format: cell-based, mouse
Method: as §2

[7] = veliparib+IR, 7 days after irradiation

Compound: C[C@]1(c2nc3c(C(N)=O)cccc3[nH]2)CCCN1 [veliparib, (R)-2-(2-methylpyrrolidin-2-yl)-1H-benzo[d]imidazole-4-carboxamide]
- SASP gene expression in tumors (IFNβ, IFNγ, CCL2, CCL5, CXCL9, CXCL10, CXCL11) (B16 tumors [1]; veliparib+IR): increased expression of SASP genes
- immunohistochemistry of enlarged senescent tumor cells (B16 tumors [1]; veliparib+IR): distinct strong staining of IFNβ, CCL2, CXCL9 and CXCL10
- p21 and p16 expression in tumors (B16 tumors [1]; veliparib+IR vs IR alone, normalized to GAPDH): significantly increased expression of p21 and p16
- effect on cisplatin-induced foci persistence, senescence and growth suppression ([2]; combined with cisplatin): enhances this effect
- accelerated senescence ([2]; combined with irradiation): induces accelerated senescence
- persistence of GFP-53BP1 foci (IRIF) ([2]; combined with irradiation): enhance radiation induced persistence of GFP-53BP1 foci
- foci persistence and senescence in presence of estrogen ([2]; irradiated cells, estrogen): overcomes the activity of estrogen
- growth ([2]; veliparib+6 Gy vs veliparib or radiation alone): causes growth suppression
- CD8+ cell proliferation stimulated by cocultured DCs (bone marrow DCs; DCs from coculture with veliparib+IR treated B16 cells): better stimulated CD8+ cell proliferation
- CD11c+ cell proliferation (bone marrow DCs; coculture with B16 cells treated with veliparib+6 Gy vs untreated or irradiated cells): increased CD11c+ cell proliferation
- CD11c+ cell maturation (MHC-II+, CD86+) (bone marrow DCs; coculture with veliparib+IR-treated cells vs radiation only): enhanced CD11c+ cell maturation
- enlarged cells and SA-βGal staining in tumors [3]: greater numbers of enlarged cells and more intense SA-βGal staining
- tumor regrowth [4]: markedly delayed tumor regrowth
- chemokine expression (CCL2, CCL3, CCL5, CXCL9, CXCL10, CXCL11) (B16 melanoma cells): upregulated
- IFNβ transcription (B16 melanoma cells; 7 days after 6 Gy): increased transcription of IFNβ
- IL-6 transcription (B16 melanoma cells; 7 days after 6 Gy): decreased IL-6
- NK cells in tumors (B16 tumors [5]): more abundant
- proportion of IFNγ-producing CD8+ cells among tumor infiltrating lymphocytes (B16 tumors [5]): 29%
- accelerated senescence and SASP ([6]; veliparib and 12 Gy): entering accelerated senescence and displaying an altered SASP
- SA-βGal staining [6, 7]: induced SA-βGal staining
- cytokine expression [6, 7]: upregulation of multiple cytokines
